From publication PMC9225722, “Synthesis and biological evaluation of thieno[3,2-c]pyrazol-3-amine derivatives as potent glycogen synthase kinase 3β inhibitors for Alzheimer’s disease” (Journal of Enzyme Inhibition and Medicinal Chemistry, 2022)
Entries after “also recorded” stand apart in the source; their conditions may differ.

How the values were obtained:
[1] = tested on: tau phosphorylation at Ser396; assay: Inhibition of Aβ-induced tau hyperphosphorylation (Western blot) in SH-SY5Y cells; assay type: cell-based, human; settings: 20 μM Aβ25-35 stimulated (Aβ25-35 alone 0.83)
Description: GSK-3β phosphorylates tau at sites (Ser199, Ser396, and Ser443), and the hyperphosphorylated tau aggregate into NFTs in AD[63]. Inhibition of GSK-3β could reduce tau hyperphosphorylation. Therefore, the cell-based assay examining Aβ-induced tau phosphorylation at Ser396 represents a direct functional assay to measure the cellular activity of GSK-3β inhibitors. To investigate the effect of 16b on tau phosphorylation, Western blot analysis was carried out to check Aβ-induced tau protein hyperphosphorylation at Ser396 in SH-SY5Y cells, using LiCl as the control. […] At the concentration of 5 μM, 10 μM and 20 μM, 16b decreased the phosphorylation tau level to 0.70, 0.52, 0.40, respectively.
Figure 7. Inhibition of Aβ-induced tau phosphorylation by 16b in SH-SY5Y cells. Values are reported as the mean ± SD of three independent experiments. *p < 0.05, **p < 0.01, ***p < 0.001 vs control.
SH-SY5Y cells were seeded in 12-well plates until 80% confluence, serum-deprived for 12 h. Cells were pre-incubated with compound 16b or LiCl for 1 h, thereafter stimulated with Aβ25–35 (Sigma) for another 6 h. According to the previously reported method[64]^,[75], the phosphorylated tau was determined.

SH-SY5Y cells = assay: Cytotoxicity on SH-SY5Y cells (MTT assay); assay type: cell-based, human
Description: To evaluate the neuronal cell cytotoxicity of compound 16b, we examined its cytotoxic profile on human neuroblastoma SH-SY5Y cells after incubation for 24 h by the MTT (3-(4,5-dimethylthiazol-2-yl)-2,5-diphenyltetrazolium bromide) assay.
Figure 5. Cell viability of SH-SY5Y cells exposed to compound 16b at different concentrations (range from 3.125 − 50 μM) for 24 h. Vehicle treater cells were used as control. The results were expressed as the percentage of viable cells observed after treatment with compound 16b respect to vehicle-treated cells (100%) and shown as the mean ± SD from at least three separate experiments.
SH-SY5Y cells were cultured in DMEM/F12 (Dulbecco’s modified Eagle medium and Ham’s F-12, 1:1) with 10% FBS (fetal bovine serum), 1% penicillin and 1% streptomycin under 5% CO2 atmosphere at 37 °C. SH-SY5Y cells (1 × 10^5) were seeded in 96-well plates and incubated for 24 h. Different concentrations of compound 16b were added into each well and incubated for another 24 h. The survival of cells was determined by MTT assay and the absorbance of each well were measured using a SpectraMax M5 multimode plate reader at 570 nm. Results were expressed as percentage of control and statistical analysis was performed using GraphPad Prism 5.0 (GraphPad Software Inc., San Diego, CA, USA).

CDK5/p35 = molecular target: T1, CDK5/p35 (Homo sapiens, UniProt Q00535); assay: Kinase selectivity screen (enzymatic radioactive assay, Eurofins Cerep); assay type: biochemical; settings: 1.0 μM compound, Km ATP
T1 construct: purchased Eurofins Cerep SA (contract assay service)
Description: The potent GSK-3β inhibitor 16b was next subjected to kinase selectivity assay. A panel of kinases which were structurally related to GSK-3β was used for the GSK-3β selectivity studies[26]^,[37]^,[38]. […] GSK-3α and GSK-3β are known to share a 98% sequence homology at the catalytic site[42]. CDK5 and GSK-3 belong to the CMGC protein kinase family, which shared highly homology with each other[43]^,[44]. CDK5 is known abnormally activated and also responsible for the tau hyperphosphorylation in AD[45]. It was known that Aβ could increase CK2 activity, which in turn accelerated the tau phosphorylation in AD[46]. Therefore, the inhibition of CDK5 and CK2 by 16b may be beneficial for its anti-AD activities.
Figure 3. Effects of compound 16b on the activities of 21 protein kinases in vitro. Protein kinases were of human origin and assayed in the presence of 1.0 μM compound 16b or vehicle (DMSO). The enzymatic activity was measured in the presence of Km ATP. Kinase activities were given as the mean of twice determinations. AMPKα1, AMP-activated protein kinase 1; AMPKα2, AMP-activated protein kinase 2; CDK4/cyclinD3, cyclin-dependent protein kinase-4/cyclinD3; CDK5/p35, cyclin-dependent protein kinase-5/p35; CHK1, checkpoint kinase-1; CK2, casein kinase-2; Lck, lymphocyte kinase; MSK1, mitogen- and stress-activated protein kinase-1; p70S6K, p70 ribosomal protein S6 kinase; PDK1, 3-phosphoinositide-dependent protein kinase-1; PKA, cAMP-dependent protein kinase; PKBα, protein kinase Bα; PKCα, protein kinase Cα; PRAK, p38-regulated/activated kinase; SAPK2a, stress-activated protein kinase-2a; SAPK2b, stress-activated protein kinase-2b; SAPK3, stress-activated protein kinase-3; SAPK4, stress-activated protein kinase-4; SGK, serum- and glucocorticoid-induced protein kinase.
Compound 16b was evaluated for kinase selectivity at Eurofins Cerep SA (Celle-L’Evescault, France) in enzymatic radioactive assays in a panel of 21 different kinases (including GSK-3β) from diverse families. […] The enzymatic activity was measured in the presence of Km ATP.

T1 sequence (Q00535 whole entry): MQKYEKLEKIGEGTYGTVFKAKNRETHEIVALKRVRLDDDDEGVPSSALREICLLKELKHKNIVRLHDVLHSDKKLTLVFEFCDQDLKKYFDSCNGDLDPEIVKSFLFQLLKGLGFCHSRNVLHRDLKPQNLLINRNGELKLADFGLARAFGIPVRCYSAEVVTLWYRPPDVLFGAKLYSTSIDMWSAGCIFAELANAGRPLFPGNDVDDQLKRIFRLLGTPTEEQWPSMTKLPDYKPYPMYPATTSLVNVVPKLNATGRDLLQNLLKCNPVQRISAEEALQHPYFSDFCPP
T1 sequence (Q15078 whole entry partner): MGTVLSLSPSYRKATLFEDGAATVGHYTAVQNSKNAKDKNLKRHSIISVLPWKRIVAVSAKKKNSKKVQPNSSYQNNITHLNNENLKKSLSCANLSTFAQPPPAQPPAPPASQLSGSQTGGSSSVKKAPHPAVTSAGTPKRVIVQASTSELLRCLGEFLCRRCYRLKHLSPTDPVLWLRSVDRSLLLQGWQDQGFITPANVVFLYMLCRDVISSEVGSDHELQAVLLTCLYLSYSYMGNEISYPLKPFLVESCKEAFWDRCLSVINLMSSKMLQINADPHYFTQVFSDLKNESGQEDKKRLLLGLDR

`CC(C)C(=O)Nc1n[nH]c2cc(-c3cccnc3)sc12` [Compound 16b, N-(5-(pyridin-3-yl)-1H-thieno[3,2-c]pyrazol-3-yl)isobutyramide] was tested, and the “p-tau/GAPDH ratio (Ser396)” value ([1]; 5 μM) was 0.70, the “p-tau/GAPDH ratio (Ser396)” value ([1]; 10 μM) was 0.52 and the “p-tau/GAPDH ratio (Ser396)” value ([1]; 20 μM) was 0.40. For the same compound, the “non-cytotoxic concentration as fold of the IC50 value of GSK-3β inhibitory activity” value (SH-SY5Y cells; 50 μM versus GSK-3β IC50) was greater than 16000 fold, the “cytotoxicity on SH-SY5Y cells” value (SH-SY5Y cells; concentration up to 50 μM (3.125-50 μM), 24 h, MTT) was “no toxicity; also recorded: no significant cytotoxicity” and the “selectivity over CDK5” value (CDK5/p35) was “low selectivity”.
